According to patent publication US20240190855A1 (Relay Therapeutics, Inc., priority 2021, published 2024):

Target: T1, CDK2/Cyclin E complex (Homo sapiens, UniProt P24941)
T1 construct: purchased Eurofins 14-475
Assay: CDK2/Cyclin E fluorescence-based microfluidic mobility shift assay (CDK2 Biochemical Caliper Assay)
Details: read-out: Biochemical CDK2/CyclinE Caliper IC50
In short: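 Microfluidic mobility-shift readout after EDTA termination measured phosphorylation of fluorescent FL Peptide 18 (1.5 uM final) in a 20 hr room-temperature reaction. Compounds were tested at 11 concentrations (3-fold).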

SMILES	IC50 [nM]
COCc1cc(C(=O)Nc2cc([C@@H]3CC[C@H](c4cc(C(C)C)ncn4)C3)[nH]n2)n(C)n1 (single isomer, unassigned) [Example 602]	1000 to 100000
COCc1cc(C(=O)Nc2cc([C@H]3CC[C@H](c4cc(C(C)C)ncn4)C3)[nH]n2)n(C)n1 (single isomer, unassigned) [Example 603]	1000 to 100000
COCc1cc(C(=O)Nc2cc([C@@H]3CC[C@@H](c4cc(C(C)C)ncn4)C3)[nH]n2)n(C)n1 (single isomer, unassigned) [Example 604]	1000 to 100000
COCc1cc(C(=O)Nc2cc([C@H]3CC[C@@H](c4cccc(C(C)C)n4)C3)[nH]n2)n(C)n1 (single isomer, unassigned) [Example 605]	1000 to 100000
COCc1cc(C(=O)Nc2cc([C@@H]3CC[C@H](c4cccc(C(C)C)n4)C3)[nH]n2)n(C)n1 (single isomer, unassigned) [Example 606]	1000 to 100000
COCc1cc(C(=O)Nc2cc([C@H]3CC[C@H](c4cccc(C(C)C)n4)C3)[nH]n2)n(C)n1 (single isomer, unassigned) [Example 607]	1000 to 100000
COCc1cc(C(=O)Nc2cc([C@@H]3CC[C@@H](c4cccc(C(C)C)n4)C3)[nH]n2)n(C)n1 (single isomer, unassigned) [Example 608]	1000 to 100000
COCc1cc(C(=O)Nc2cc([C@H]3CC[C@@H](c4nccc(C(C)C)n4)C3)[nH]n2)n(C)n1 (single isomer, unassigned) [Example 609]	≤ 100
COCc1cc(C(=O)Nc2cc([C@@H]3CC[C@H](c4nccc(C(C)C)n4)C3)[nH]n2)n(C)n1 (single isomer, unassigned) [Example 610]	≤ 100
COCc1cc(C(=O)Nc2cc([C@H]3CC[C@H](c4nccc(C(C)C)n4)C3)[nH]n2)n(C)n1 (single isomer, unassigned) [Example 611]	1000 to 100000
COCc1cc(C(=O)Nc2cc([C@@H]3CC[C@@H](c4nccc(C(C)C)n4)C3)[nH]n2)n(C)n1 (single isomer, unassigned) [Example 612]	1000 to 100000
COCc1cc2c(Nc3cc([C@H]4C[C@@H](OC(=O)NC(C)(C)C)CO4)[nH]n3)nccn2n1 (single isomer, unassigned) [Example 617]	≤ 100
COCc1cc2c(Nc3cc([C@@H]4C[C@H](OC(=O)NC(C)(C)C)CO4)[nH]n3)nccn2n1 (single isomer, unassigned) [Example 618]	≤ 100
COCc1cc2c(Nc3cc([C@H]4C[C@@H](OC(=O)N[C@]5(C)CC5(F)F)CO4)[nH]n3)nccn2n1 (single isomer, unassigned) [Example 729]	≤ 100
COCc1cc2c(Nc3cc([C@H]4C[C@@H](OC(=O)N[C@@]5(C)CC5(F)F)CO4)[nH]n3)nccn2n1 (single isomer, unassigned) [Example 731]	≤ 100
COCc1cc2c(Nc3cc([C@H]4C[C@@H](OC(=O)N[C@@H](C)CC(F)(F)F)CO4)[nH]n3)nccn2n1 (single isomer, unassigned) [Example 739]	≤ 100
COCc1cc2c(Nc3cc([C@H]4C[C@@H](OC(=O)N[C@H](C)CC(F)(F)F)CO4)[nH]n3)nccn2n1 (single isomer, unassigned) [Example 757]	≤ 100
CO[C@H](c1cc(C(=O)Nc2cc([C@H]3C[C@@H](OC(=O)NC4(C)CC4)CO3)[nH]n2)n(C)n1)C(F)(F)F (single isomer, unassigned) [Example 889]	100 to 250
CO[C@@H](c1cc(C(=O)Nc2cc([C@H]3C[C@@H](OC(=O)NC4(C)CC4)CO3)[nH]n2)n(C)n1)C(F)(F)F (single isomer, unassigned) [Example 890]	≤ 100
CO[C@@H](C)c1cc2c(Nc3cc([C@H]4C[C@@H](OC(=O)NC5(C)CC5)CO4)[nH]n3)nccn2n1 (single isomer, unassigned) [Example 891]	≤ 100
CO[C@H](C)c1cc2c(Nc3cc([C@H]4C[C@@H](OC(=O)NC5(C)CC5)CO4)[nH]n3)nccn2n1 (single isomer, unassigned) [Example 892]	≤ 100
Cn1nc(COC(F)(F)F)cc1C(=O)Nc1ncc([C@@H]2C[C@H](OC(=O)NC3(C)CC3)CO2)s1 (single isomer, unassigned) [Example 899]	≤ 100
COCc1cc(C(=O)Nc2ncc([C@@H]3C[C@H](OC(=O)NC4(C)CC4)CO3)s2)n(C)n1 (single isomer, unassigned) [Example 900]	≤ 100

SMILES	IC50 [nM]
Cn1nc(COC(F)(F)F)cc1C(=O)Nc1ncc([C@H]2C[C@@H](OC(=O)NC3(C)CC3)CO2)s1 (single isomer, unassigned) [Example 903]	≤ 100
COCc1cc(C(=O)Nc2ncc([C@H]3C[C@@H](OC(=O)NC4(C)CC4)CO3)s2)n(C)n1 (single isomer, unassigned) [Example 905]	≤ 100
Cc1cc(CC(=O)Nc2ncc(C3CCCC3)o2)on1 [Example 38]	1000 to 100000
Cc1cc(CC(=O)Nc2nc(C3CCCC3)c[nH]2)on1 [Example 43]	1000 to 100000
Cc1cc(CC(=O)Nc2cc(C3(C)CCCC3)[nH]n2)on1 [Example 47]	1000 to 100000
Cc1cc(CC(=O)Nc2cc(C3CCCCC3)[nH]n2)on1 [Example 48]	1000 to 100000
Cc1cc(CC(=O)Nc2cc([C@H]3C[C@@H]4C[C@@H]4C3)[nH]n2)on1 [Example 50]	1000 to 100000
Cc1cc(CC(=O)Nc2cc(N3CC[C@H](COC(=O)NC4(C)CC4)C3)[nH]n2)on1 [Example 51]	1000 to 100000
Cc1cc(CC(=O)Nc2cc(N3CC[C@H]3COC(=O)NC3(C)CC3)[nH]n2)on1 [Example 52]	1000 to 100000
Cc1cc(CC(=O)Nc2cc(C3CCNCC3)[nH]n2)on1 [Example 54]	1000 to 100000
Cc1cc(CC(=O)Nc2cc(C3CC3)[nH]n2)on1 [Example 59]	1000 to 100000
Cc1cc(CC(=O)Nc2cn(C3CCCC3)cn2)on1 [Example 60]	1000 to 100000
Cc1cc(CC(=O)Nc2ncn(C3CCCC3)n2)on1 [Example 61]	1000 to 100000
Cc1cc(CC(=O)Nc2cc(-c3ccccc3)[nH]n2)on1 [Example 62]	1000 to 100000
Cc1cc(CC(=O)Nc2cc(C3CCCC3)[nH]n2)on1 [Example 66]	1000 to 100000
Cc1cc(CC(=O)Nc2cc([C@H]3C[C@@H](COC(=O)NC(C)C)C3)[nH]n2)on1 [Example 125]	≤ 100
Cc1cc(CC(=O)Nc2cc([C@H]3CC[C@@H](COC(=O)NC(C)C)CC3)[nH]n2)on1 [Example 135]	1000 to 100000
Cc1cc(CC(=O)Nc2cc([C@H]3CC[C@@H](OC(=O)N(C(C)C)C(C)C)C3)n[nH]2)on1 [Example 147]	≤ 100
Cc1cc(CC(=O)Nc2cc(-c3csc4cncnc34)[nH]n2)on1 [Example 240]	1000 to 100000
COCc1cc(C(=O)Nc2cc(-c3csc4cncnc34)[nH]n2)n(C)n1 [Example 242]	1000 to 100000
Cc1cc(CC(=O)Nc2cc(C34CCC(CC3)C4)[nH]n2)on1 [Example 244]	1000 to 100000
c1cnc(Nc2cc(C34CCC(CC3)C4)[nH]n2)nc1 [Example 314]	1000 to 100000
Cc1cc(CC(=O)Nc2cc(-c3csc4cnc(NC(C)C)nc34)[nH]n2)on1 [Example 336]	250 to 1000

SMILES	IC50 [nM]
COCc1cc(C(=O)Nc2cc(-c3csc4cnc(NC(C)C)nc34)[nH]n2)n(C)n1 [Example 337]	1000 to 100000
Cc1cc(CC(=O)Nc2cc([C@H]3C[C@@H](CC(=O)NC(C)C)C3)[nH]n2)on1 [Example 347]	1000 to 100000
Cc1cc(CC(=O)Nc2cc([C@H]3C[C@H](CC(=O)NC(C)C)C3)[nH]n2)on1 [Example 348]	1000 to 100000
COCc1cc(C(=O)Nc2cc([C@H]3C[C@@H](CC(=O)NC(C)C)C3)[nH]n2)n(C)n1 [Example 360]	1000 to 100000
COCc1cc(C(=O)Nc2cc([C@H]3C[C@H](CC(=O)NC(C)C)C3)[nH]n2)n(C)n1 [Example 361]	1000 to 100000
Cc1cc(CC(=O)Nc2cc([C@H]3C[C@@H](COc4nscc4C4CC4)C3)[nH]n2)on1 [Example 368]	≤ 100
Cc1cc(CC(=O)Nc2cc([C@H]3C[C@H](COc4nscc4C4CC4)C3)[nH]n2)on1 [Example 369]	1000 to 100000
Cc1ccc(O[C@@H]2CC[C@H](c3cc(NC(=O)Cc4cc(C)no4)n[nH]3)C2)nn1 [Example 397]	250 to 1000
Cc1cc(CC(=O)Nc2cc([C@H]3C[C@@H](Oc4nnccc4C(C)C)CO3)[nH]n2)on1 [Example 406]	≤ 100
Cc1cc(CC(=O)Nc2cc([C@@H]3C[C@H](Oc4nnccc4C(C)C)CO3)[nH]n2)on1 [Example 407]	≤ 100
CC(C)c1ccnnc1O[C@H]1CC[C@@H](c2cc(Nc3nccc4ncsc34)n[nH]2)CC1 [Example 412]	≤ 100
Cc1cc(CC(=O)Nc2cc(C3CCCN3)[nH]n2)on1 (stereo not shown) [Example 416]	1000 to 100000
CC(C)NC(=O)O[C@@H]1CC[C@H](c2cc(Nc3ncnc4ncsc34)n[nH]2)C1 [Example 425]	≤ 100
CC(C)NC(=O)O[C@H]1CC[C@@H](c2cc(Nc3ncnc4ncsc34)n[nH]2)C1 [Example 426]	≤ 100
COCc1cc(C(=O)Nc2cc([C@H]3C[C@@H](COc4nnccc4C(C)C)C3)[nH]n2)n(C)n1 [Example 429]	≤ 100
COCc1cc(C(=O)Nc2cc([C@H]3C[C@H](COc4nnccc4C(C)C)C3)[nH]n2)n(C)n1 [Example 430]	1000 to 100000
Cc1cc(CC(=O)Nc2cc([C@H]3C[C@@H](COc4nnccc4C(C)C)C3)[nH]n2)on1 [Example 431]	≤ 100
Cc1cc(CC(=O)Nc2cc([C@H]3C[C@H](COc4nnccc4C(C)C)C3)[nH]n2)on1 [Example 432]	100 to 250
CC(C)NC(=O)O[C@H]1CO[C@@H](c2cc(Nc3nccc4ncsc34)n[nH]2)C1 [Example 433]	≤ 100
CC(C)NC(=O)O[C@@H]1CO[C@H](c2cc(Nc3nccc4ncsc34)n[nH]2)C1 [Example 434]	100 to 250
CC(C)c1ccnnc1O[C@H]1C[C@@H](c2cc(Nc3nccc4ncsc34)n[nH]2)C1 [Example 435]	≤ 100
